Patent publication US20230105108A1, “COMPOUNDS FOR THE TREATMENT OF BACTERIAL INFECTIONS AND POTENTIATION OF ANTIBIOTICS” (GEORGIA STATE UNIVERSITY RESEARCH FOUNDATION, INC., priority 2019, published 2023)
Where a name gives a salt, the structure may show the parent alone.

Columns and labels:
E. coli (ATCC 25922) = assay: Antibiotic uptake in the presence and absence of MD-100 (HPLC); assay type: cell-based; details: E. coli lysate, presence vs absence of 25 μg/ml MD-100
Procedure: Direct comparison of the antibiotic uptake in the presence and absence of MD-100 through HPLC study. E. coli (ATCC 25922) was cultured in Mueller Hinton II cation-adjusted broth for overnight at 37° C. to reach a density of OD600 of 0.8 to 1.0. To 20 ml fresh Mueller Hinton II cation-adjusted broth was added 50 μl E. coli stock, 200 μl 5 mg/ml O—CH3 novobiocin and 100 μl 10 mM MD-100. In the other group, the same amount of E. coli stock, O—CH3 novobiocin was used in the absence of MD-100. Then E. coli was incubated for 20 h at 37° C. with continuous shaking of 200 rpm. After, the E. coli suspension was centrifuged at 3000 g for 10 min and the culture media was removed to obtain bacteria pallet. The pallets from the two groups was re-suspended in PBS to reach the same OD600 of 2.0. To this E. coli suspension was spiked with 10 μM internal standard. 1 ml E. coli from each group in PBS was lysed by sonication on ice for 15 min, followed by adding 2 ml MeOH, the mixture was then centrifuged at 3000 g for 5 min and the supernatant was analyzed by HPLC. 20 μl of each sample was injected into Shimadzu Prominence UFLC (column: Waters C18, […], 4.6×100 mm, injection loop volume: 20 μl). The mobile phase was acetonitrile (ACN)/H2O (with 0.05% trifluoroacetic acid in the aqueous) with ratios defined as: 20%˜55% ACN, 0˜10 min; 55%˜65% ACN, 10˜20 min; 65%˜20% ACN, 20˜25 min. […]

E. coli = assay: Bacterial resistance frequency study; assay type: cell-based
Procedure: Bacterial resistance frequency study: E. coli was grown overnight in Mueller Hinton II cation-adjusted broth medium and concentrated to ˜5×10^9 CFUs/ml in Mueller Hinton II cation-adjusted broth. […] Then the plates were incubated at 37° C. for 48 h. Then the colonies formed on the plate were recorded and resistant frequency was calculated.

Cc1cc(COc2ccc(C(=N)N)cc2)cc(COc2ccc(C(=N)N)cc2)c1 [MD-100, 4,4′-(((5-methyl-1,3-phenylene)bis(methylene))bis(oxy))dibenzimidamide dihydrochloride]
relative intracellular concentration of O-methyl novobiocin (E. coli (ATCC 25922)): greatly increased

N=C(N)c1ccc(COc2cc(OCc3ccc(C(=N)N)cc3)cc(C(F)(F)F)c2)cc1 [MD-124, 4,4′-(((5-(trifluoromethyl)-1,3-phenylene)bis(oxy))bis(methylene)) dibenzimidamide dihydrochloride]
resistant frequency towards MD-124 (E. coli; 10 μg/ml MD-124, 2.7×10^10 CFUs tested): < 3.7×10^−11 | lower resistance frequency towards MD-124/antibiotic combination than the antibiotic itself (E. coli; 10 μg/ml MD-124, antibiotic 2 to 7-fold of MIC): 2 to 3 orders of magnitude
